These are literature values, as cited in article PMC3652662 (Journal of molecular recognition : JMR, 2009).

The series deals with HIV-1YU2 gp120. The settings on record: SPR direct binding, HIV-1 Env YU2 (clade B) gp120; ref Gopi et al. (2008).

As for RINNIPWSEAMM [Peptide 12p1], the ka is 13600 M⁻¹ s⁻¹.
